The values below come from patent US8952024B2, “Herbicidal pyrimidone derivatives” (E I du Pont de Nemours and Company, priority 2009, dated 2015).

Holding throughout (experiment): Test B flooded paddy test
Type in all cases: in vivo

Test [1] has as its system barnyardgrass (Echinochloa crus-galli). The conditions noted are these: for pest or weed control at 250 g/ha / pest or weed control at 31 g/ha / pest or weed control at 62 g/ha / pest or weed control at 125 g/ha: Echinochloa crus-galli, 360 h; for pest or weed control at 250 g/ha: read-out: Plant response rating, Flood, Barnyardgrass; for pest or weed control at 31 g/ha / pest or weed control at 62 g/ha / pest or weed control at 125 g/ha / Plant response rating, Barnyardgrass: Flood (flooded paddy test), 13 to 15 days; for pest or weed control at 31 g/ha / pest or weed control at 62 g/ha / pest or weed control at 125 g/ha: read-out: Plant response rating, Barnyardgrass. The method in brief:
(§1)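 Seedlings reaching 2 leaves are flooded 3 cm deep; test material is delivered to that water, which stays at the same depth. Plants remain in a greenhouse 13–15 days and are then scored by eye versus controls from 0 to 100.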

For test [2], the system named is ducksalad (Heteranthera limosa). The conditions noted are these: for pest or weed control at 250 g/ha / pest or weed control at 31 g/ha / pest or weed control at 62 g/ha / pest or weed control at 125 g/ha: Heteranthera limosa, 360 h; for pest or weed control at 250 g/ha: read-out: Plant response rating, Flood, Ducksalad; for pest or weed control at 31 g/ha / pest or weed control at 62 g/ha / pest or weed control at 125 g/ha / Plant response rating, Ducksalad: Flood (flooded paddy test), 13 to 15 days; for pest or weed control at 31 g/ha / pest or weed control at 62 g/ha / pest or weed control at 125 g/ha: read-out: Plant response rating, Ducksalad. The method in brief: as §1

For test [3], the system named is umbrella sedge (Cyperus difformis). The conditions noted are these: for pest or weed control at 250 g/ha / pest or weed control at 31 g/ha / pest or weed control at 62 g/ha / pest or weed control at 125 g/ha: Cyperus difformis, 360 h; for pest or weed control at 250 g/ha: read-out: Plant response rating, Flood, Sedge, Umbrella; for pest or weed control at 31 g/ha / pest or weed control at 62 g/ha / pest or weed control at 125 g/ha / Plant response rating, Sedge, Umbrella: Flood (flooded paddy test), 13 to 15 days; for pest or weed control at 31 g/ha / pest or weed control at 62 g/ha / pest or weed control at 125 g/ha: read-out: Plant response rating, Sedge, Umbrella. Put shortly:
as §1

The next test concerns rice (Oryza sativa). The note with it: for plant injury at 250 g/ha / plant injury at 31 g/ha / plant injury at 62 g/ha / plant injury at 125 g/ha: Oryza sativa; for plant injury at 250 g/ha: read-out: Plant response rating, Flood, Rice; for plant injury at 31 g/ha / plant injury at 62 g/ha / plant injury at 125 g/ha / Plant response rating, Rice: Flood (flooded paddy test), 13 to 15 days; for plant injury at 31 g/ha / plant injury at 62 g/ha / plant injury at 125 g/ha: read-out: Plant response rating, Rice. The method in brief: as §1

The mark [4] stands for this setting: 250 g ai/ha, flooded paddy test, visual rating on 0 to 100 scale (0 no effect, 100 complete control) after 13 to 15 days.
Where [5] appears, read: 31 g ai/ha, scale of 0 to 100 where 0 is no effect and 100 is complete control.
Setting [6] is: 62 g ai/ha, scale 0 to 100, 0 is no effect, 100 is complete control.
The mark [7] stands for this setting: 125 g ai/ha, scale 0 to 100, 0 is no effect, 100 is complete control.
The mark [8] stands for this setting: 62 g ai/ha, scale of 0 to 100 where 0 is no effect and 100 is complete control.
Where [9] appears, read: Flood, 31 g ai/ha, scale 0 to 100 (0 no effect, 100 complete control).

Where two headings read alike, the source gives them in different places.

As for `CCn1ncc(C(=O)c2cnc(-c3ccccc3)n(Cc3ccccc3)c2=O)c1OS(=O)(=O)c1ccc(C)cc1` [Compound 21, 5-[[1-ethyl-5-[[(4-methylphenyl)sulfonyl]oxy]-1H-pyrazol-4-yl]carbonyl]-2-phenyl-3-(phenylmethyl)-4(3H)-pyrimidinone], the results for the pest or weed control at 250 g/ha in test [1] (setting [4]), in test [2] (setting [4]) and in test [3] (setting [4]) were 0%, 75% and 65%, respectively. Moreover, the values for the pest or weed control at 31 g/ha in test [1] (setting [5]), in test [2] (setting [5]) and in test [3] (setting [5]) were 0%, 60% and 40%, respectively. For the same compound, the pest or weed control at 62 g/ha in test [1] (setting [6]) is 0%; in test [2] (setting [6]), 70%; in test [3] (setting [6]), 50%. The results for the pest or weed control at 125 g/ha in test [1] (setting [7]), in test [2] (setting [7]) and in test [3] (setting [7]) were 0%, 70% and 60%, respectively. The plant injury at 250 g/ha in the test with rice (Oryza sativa) (setting [4]) stood at 0%. Moreover, the plant injury at 31 g/ha in the test on rice (Oryza sativa) (setting [5]) is 0%. Besides, the plant injury at 62 g/ha in the test on rice (Oryza sativa) (setting [6]) came out at 0%. Also, in the test on rice (Oryza sativa) (setting [7]), the plant injury at 125 g/ha was determined as 0%.

Turning to `O=C(c1cnoc1C1CC1)c1cnc(-c2ccccc2)n(-c2ccccc2)c1=O` [Compound 223, 5-[(5-cyclopropyl-4-isoxazolyl)-carbonyl]-2,3-diphenyl-4(3H)-pyrimidinone], the pest or weed control at 250 g/ha in test [1] (setting [4]), in test [2] (setting [4]) and in test [3] (setting [4]) was 0% in each case. For the same compound, the pest or weed control at 62 g/ha in test [1] (setting [8]), in test [2] (setting [8]) and in test [3] (setting [8]) was 0% throughout. Besides, the pest or weed control at 125 g/ha in test [1] (setting [7]), in test [2] (setting [7]) and in test [3] (setting [7]) was 0% each time. Moreover, in test [1] (setting [9]), the “Barnyardgrass plant response rating” value is reported as 0. Further, the “Ducksalad plant response rating” value in test [2] (setting [9]) stood at 0. Also, the “Sedge, Umbrella plant response rating” value in test [3] (setting [9]) came to 0. In addition, the “Rice plant response rating” value in the test on rice (Oryza sativa) (setting [9]) is on record as 0. In addition, the plant injury at 250 g/ha in the test with rice (Oryza sativa) (setting [4]) came out at 0%. The plant injury at 62 g/ha with rice (Oryza sativa) (setting [8]) was 0%. Also, the plant injury at 125 g/ha in the test with rice (Oryza sativa) (setting [7]) was 0%.

Consider `CCn1ncc(C(=O)c2cnc(-c3ccccc3)n(Cc3ccccc3)c2=O)c1O` [Compound 20, 5-[(1-ethyl-5-hydroxy-1H-pyrazol-4-yl)carbonyl]-2-phenyl-3-(phenylmethyl)-4(3H)-pyrimidinone], for which the pest or weed control at 250 g/ha in test [1] (setting [4]) stood at 0%; in test [2] (setting [4]) it was 75%; in test [3] (setting [4]), 60%. The values for the pest or weed control at 31 g/ha in test [1] (setting [5]), in test [2] (setting [5]) and in test [3] (setting [5]) were 0%, 60% and 0%, respectively. For the same compound, the pest or weed control at 62 g/ha in test [1] (setting [6]) was 0%; in test [2] (setting [6]), 60%; in test [3] (setting [6]), 40%. For the same compound, the pest or weed control at 125 g/ha in test [1] (setting [7]) worked out at 0%; in test [2] (setting [7]), 65%; in test [3] (setting [7]), 50%. The plant injury at 250 g/ha in the test on rice (Oryza sativa) (setting [4]) was 15%. In the test with rice (Oryza sativa) (setting [5]), the plant injury at 31 g/ha was determined as 0%. The plant injury at 62 g/ha in the test with rice (Oryza sativa) (setting [6]) is 0%. Moreover, the plant injury at 125 g/ha in the test on rice (Oryza sativa) (setting [7]) amounted to 0%.

Turning to `COc1cccc(-n2c(-c3ccccc3)ncc(C(=O)C3=C(O)CCCC3=O)c2=O)c1` [Compound 19], the “Plant response rating, Flood, Barnyardgrass” value in test [1] (setting [4]) is recorded as 15. The “Plant response rating, Barnyardgrass” value in test [1] (setting [5]), in test [1] (setting [6]) and in test [1] (setting [7]) was 0 throughout. Besides, the “Plant response rating, Flood, Ducksalad” value in test [2] (setting [4]) is listed as 90. The “Plant response rating, Ducksalad” value in test [2] (setting [5]) is 0; in test [2] (setting [6]), 75; in test [2] (setting [7]), 85. The “Plant response rating, Flood, Sedge, Umbrella” value in test [3] (setting [4]) is 95. The “Plant response rating, Sedge, Umbrella” value in test [3] (setting [5]) is on record as 0; in test [3] (setting [6]), 70; in test [3] (setting [7]), 85. Moreover, the “Plant response rating, Flood, Rice” value in the test with rice (Oryza sativa) (setting [4]) is on record as 0. The “Plant response rating, Rice” value in the test on rice (Oryza sativa) (setting [5]), with rice (Oryza sativa) (setting [6]) and in the test with rice (Oryza sativa) (setting [7]) was 0 throughout.
